Laboratory results reported in patent US8846653B2, “Delta-tocotrienol treatment and prevention of pancreatic cancer” (University of South Florida, priority 2006, dated 2014).

Legend:
Format in all cases: cell-based, human
MiaPaCa-2 cells [1] = assay: MTT assay of MiaPaCa2 cultures, single 50 μM dose; design: rel amt (relative value set to the control): unit not given here; conditions: MiaPaCa2, 50 μM; for MTT assay result, av-blank: average minus blank; for MTT assay result, av: average of 7 runs
Protocol: MiaPaCa-2, BxPc-3, and HPDE6-C7 cells were cultured as described above, and treated with a single 50 μM dose of vehicle (ethanol extracted olive oil), T3 alpha (alpha tocotrienol), T3 beta (beta tocotrienol), T3 gamma (gamma tocotrienol), T3 delta (delta tocotrienol), T alpha (alpha tocopherol), T beta (beta tocopherol), TS (tocopherol succinate), GG (geranylgeraniol), SA (succinic acid). A control culture (vehicle only with no treatment) was grown alongside the treatments for comparison. Cell viability was measured using MTT assay at preselect times of 48 or 120 hours after treatment.

[2] = system: SW1990 pancreatic cancer cells; assay: MTS assay of SW1990 cultures, single 50 μM dose; conditions: SW1990, 50 μM
Protocol: SW1990 pancreatic cancer cells […] were cultured in complete DMEM media containing 10% fetal bovine serum (FBS) and 1% penicillin-streptomycin, and 1% L-glutamine. BxPc-3 pancreatic cancer cells were cultured in complete RPMI media containing 10% fetal bovine serum (FBS), and 1% penicillin-streptomycin, 1% HEPES buffer, 1% sodium pyruvate and 1% L-glutamine. HPDE6-C7 cells were cultured in serum-free keratinocyte SFM media. All cells were maintained at 37° C. in a humidified incubator with 5% CO2. The cells were treated with a single 50 μM dose of vehicle (ethanol extracted olive oil), T3 alpha (alpha tocotrienol), T3 beta (beta tocotrienol), T3 gamma (gamma tocotrienol), T3 delta (delta tocotrienol), T alpha (alpha tocopherol), T beta (beta tocopherol), TS (tocopherol succinate), GG (geranylgeraniol), SA (succinic acid). A control culture (i.e., only vehicle with no treatment) was grown alongside the treatments for comparison. Cell viability was measured using MTS assay at preselect times of 24, 48, or 72 hours after treatment.

MiaPaCa-2 cells [3] = assay: MTS assay of MiaPaCa2 cultures, single 50 μM dose; conditions: MiaPaCa2, 50 μM
Protocol: MiaPaCa-2 cells were cultured in complete DMEM media containing 10% fetal bovine serum (FBS) and 1% penicillin-streptomycin, and 1% L-glutamine. BxPc-3 pancreatic cancer cells were cultured in complete RPMI media containing 10% fetal bovine serum (FBS), and 1% penicillin-streptomycin, 1% HEPES buffer, 1% sodium pyruvate and 1% L-glutamine HPDE6-C7 cells were cultured in serum-free keratinocyte SFM media. All cells were maintained at 37° C. in a humidified incubator with 5% CO2. The cells were treated with a single 50 μM dose of vehicle (vehicle only, may be a solvent), T3 alpha (alpha tocotrienol), T3 beta (beta tocotrienol), T3 gamma (gamma tocotrienol), T3 delta (delta tocotrienol), T alpha (alpha tocopherol), T beta (beta tocopherol), TS (tocopherol succinate), GG (geranylgeraniol), SA (succinic acid). A control (no treatment) culture was grown alongside the treatments for comparison. […]

O=C(O)CCC(=O)O [SA, succinic acid]
rel amt (relative value set to the control) (MiaPaCa-2 cells [1]; 48 hours): 74
MTT assay result, av-blank (MiaPaCa-2 cells [1]; 48 hours): 0.228
MTT assay result, av (MiaPaCa-2 cells [1]; 48 hours): 0.274
MTT assay result, run 1 (MiaPaCa-2 cells [1]; 48 hours): 0.276
MTT assay result, run 2 (MiaPaCa-2 cells [1]; 48 hours): 0.269
MTT assay result, run 3 (MiaPaCa-2 cells [1]; 48 hours): 0.268
MTT assay result, run 4 (MiaPaCa-2 cells [1]; 48 hours): 0.276
MTT assay result, run 5 (MiaPaCa-2 cells [1]; 48 hours): 0.3
MTT assay result, run 6 (MiaPaCa-2 cells [1]; 48 hours): 0.262
MTT assay result, run 7 (MiaPaCa-2 cells [1]; 48 hours): 0.266
rel amt (relative value set to the control) (MiaPaCa-2 cells [1]; 120 hours (5 days)): 80
MTT assay result, av-blank (MiaPaCa-2 cells [1]; 120 hours (5 days)): 1.443
MTT assay result, av (MiaPaCa-2 cells [1]; 120 hours (5 days)): 1.495
MTT assay result, run 1 (MiaPaCa-2 cells [1]; 120 hours (5 days)): 1.36
MTT assay result, run 2 (MiaPaCa-2 cells [1]; 120 hours (5 days)): 1.346
MTT assay result, run 3 (MiaPaCa-2 cells [1]; 120 hours (5 days)): 1.488
MTT assay result, run 4 (MiaPaCa-2 cells [1]; 120 hours (5 days)): 1.609
MTT assay result, run 5 (MiaPaCa-2 cells [1]; 120 hours (5 days)): 1.84
MTT assay result, run 6 (MiaPaCa-2 cells [1]; 120 hours (5 days)): 1.412
MTT assay result, run 7 (MiaPaCa-2 cells [1]; 120 hours (5 days)): 1.408
rel amnt (relative value set to the control) ([2]; 24 hours): 109
MTS assay result, run 1 ([2]; 24 hours): 0.146
MTS assay result, run 2 ([2]; 24 hours): 0.154
MTS assay result, run 3 ([2]; 24 hours): 0.15
MTS assay result, run 4 ([2]; 24 hours): 0.152
MTS assay result, run 5 ([2]; 24 hours): 0.172
MTS assay result, run 6 ([2]; 24 hours): 0.165
MTS assay result, run 7 ([2]; 24 hours): 0.179
MTS assay result, run 8 ([2]; 24 hours): 0.165
MTS assay result, run 9 ([2]; 24 hours): 0.160
rel amnt (relative value set to the control) ([2]; 48 hours): 105
MTS assay result, run 1 ([2]; 48 hours): 0.122
MTS assay result, run 2 ([2]; 48 hours): 0.149
MTS assay result, run 3 ([2]; 48 hours): 0.17
MTS assay result, run 4 ([2]; 48 hours): 0.138
MTS assay result, run 5 ([2]; 48 hours): 0.177
MTS assay result, run 6 ([2]; 48 hours): 0.159
MTS assay result, run 7 ([2]; 48 hours): 0.18
MTS assay result, run 8 ([2]; 48 hours): 0.178
MTS assay result, run 9 ([2]; 48 hours): 0.159
rel amnt (relative value set to the control) ([2]; 72 hours): 113
MTS assay result, run 1 ([2]; 72 hours): 0.596
MTS assay result, run 2 ([2]; 72 hours): 0.547
MTS assay result, run 3 ([2]; 72 hours): 0.57
MTS assay result, run 4 ([2]; 72 hours): 0.515
MTS assay result, run 5 ([2]; 72 hours): 0.544
MTS assay result, run 6 ([2]; 72 hours): 0.44
MTS assay result, run 7 ([2]; 72 hours): 0.4
MTS assay result, run 8 ([2]; 72 hours): 0.427
MTS assay result, run 9 ([2]; 72 hours): 0.504
rel amt (relative value set to the control) (MiaPaCa-2 cells [3]; 24 hours): 105
MTS assay result, run 1 (MiaPaCa-2 cells [3]; 24 hours): 0.24
MTS assay result, run 2 (MiaPaCa-2 cells [3]; 24 hours): 0.248
MTS assay result, run 3 (MiaPaCa-2 cells [3]; 24 hours): 0.25
MTS assay result, run 4 (MiaPaCa-2 cells [3]; 24 hours): 0.245
MTS assay result, run 5 (MiaPaCa-2 cells [3]; 24 hours): 0.236
MTS assay result, run 6 (MiaPaCa-2 cells [3]; 24 hours): 0.219
MTS assay result, run 7 (MiaPaCa-2 cells [3]; 24 hours): 0.214
MTS assay result, run 8 (MiaPaCa-2 cells [3]; 24 hours): 0.204
MTS assay result, run 9 (MiaPaCa-2 cells [3]; 24 hours): 0.232
rel amt (relative value set to the control) (MiaPaCa-2 cells [3]; 48 hours): 90
MTS assay result, run 1 (MiaPaCa-2 cells [3]; 48 hours): 0.334
MTS assay result, run 2 (MiaPaCa-2 cells [3]; 48 hours): 0.335
MTS assay result, run 3 (MiaPaCa-2 cells [3]; 48 hours): 0.333
MTS assay result, run 4 (MiaPaCa-2 cells [3]; 48 hours): 0.304
MTS assay result, run 5 (MiaPaCa-2 cells [3]; 48 hours): 0.32
MTS assay result, run 6 (MiaPaCa-2 cells [3]; 48 hours): 0.294
MTS assay result, run 7 (MiaPaCa-2 cells [3]; 48 hours): 0.352
MTS assay result, run 8 (MiaPaCa-2 cells [3]; 48 hours): 0.348
MTS assay result, run 9 (MiaPaCa-2 cells [3]; 48 hours): 0.328
rel amt (relative value set to the control) (MiaPaCa-2 cells [3]; 72 hours): 114
MTS assay result, run 1 (MiaPaCa-2 cells [3]; 72 hours): 0.596
MTS assay result, run 2 (MiaPaCa-2 cells [3]; 72 hours): 0.547
MTS assay result, run 3 (MiaPaCa-2 cells [3]; 72 hours): 0.566
MTS assay result, run 4 (MiaPaCa-2 cells [3]; 72 hours): 0.515
MTS assay result, run 5 (MiaPaCa-2 cells [3]; 72 hours): 0.544
MTS assay result, run 6 (MiaPaCa-2 cells [3]; 72 hours): 0.44
MTS assay result, run 7 (MiaPaCa-2 cells [3]; 72 hours): 0.397
MTS assay result, run 8 (MiaPaCa-2 cells [3]; 72 hours): 0.427
MTS assay result, run 9 (MiaPaCa-2 cells [3]; 72 hours): 0.504
